Laboratory results as given in patent US20210255184A1, “Biosensor Device and Methods” (The New Zealand Institute for Plant and Food Research …, priority 2018, published 2021).
Entries after “also recorded” stand apart in the source; their conditions may differ.

What was measured:
Assay type in all cases: biochemical
[1] = biological target: T1, Or10a (Drosophila melanogaster, UniProt Q9VYZ1); assay: QCM-D sensor, Or10a liposomes; details: 1.6 to 1000 μM in PBS with 1% DMSO
T1 construct: his-tag; made in house; host or cells: baculovirus-infected Sf9 cells
T1 sequence (Q9VYZ1 1-406): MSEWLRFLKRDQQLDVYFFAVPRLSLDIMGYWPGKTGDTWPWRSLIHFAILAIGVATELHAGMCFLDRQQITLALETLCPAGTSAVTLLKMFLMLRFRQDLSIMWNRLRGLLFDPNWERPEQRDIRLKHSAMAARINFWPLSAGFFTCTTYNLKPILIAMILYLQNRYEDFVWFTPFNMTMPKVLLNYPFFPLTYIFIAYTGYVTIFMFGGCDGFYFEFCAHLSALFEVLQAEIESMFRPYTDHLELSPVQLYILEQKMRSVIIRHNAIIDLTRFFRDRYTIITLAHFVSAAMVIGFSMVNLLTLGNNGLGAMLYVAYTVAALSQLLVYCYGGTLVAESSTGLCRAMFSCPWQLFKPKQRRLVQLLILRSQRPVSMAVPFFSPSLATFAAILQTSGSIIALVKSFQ
Experimental: (§1) Gold (100 nm) sensor crystals were sonicated in ethanol and milli-Q water for 15 minutes each respectively. A 5:1:1 volume ratio of milli-Q water, ammonia (25%), and hydrogen peroxide (30%) was heated to 75° C. for 5 minutes and the sonicated crystals were placed in the heated solution for 5 minutes. Then the crystals were removed from the solution and rinsed with milli-Q water before drying with nitrogen gas. The clean gold crystals were thiol-functionalized by exposing them to 2 mM ethanolic solution of MHA overnight followed by washing with ethanol solution in order to remove excess or loosely bound molecules. NHS/EDC was prepared using 2:1 mol:mol ratio of EDC:NHS (100 mM EDC, 50 mM NHS) in 2 ml PBS (pH=6.5) solution. Each OrX/liposome stock solution was diluted 100 fold for QCM-D measurements in PBS buffer solution (pH=7.4). The SAM functionalized crystals were then placed into the Q-sense analyser instrument (Biolin Scientific) chamber and flowed with the NHS/EDC, Or10a/liposomes or Or10a/Orco liposomes, and various concentrations of methyl hexanoate (1.6 μM, 8 μM, 20 μM, 40 μM, 100 μM, 200 μM, 500 μM and 1000 μM) in PBS buffer solution containing 1% DMSO to measure the changes in frequency (Δf) and dissipation (ΔD) values.

[2] = biological target: T2, Or10a/Orco (Drosophila melanogaster, UniProt Q9VYZ1); assay: QCM-D sensor, Or10a/Orco liposomes; details: 1.6 to 1000 μM in PBS with 1% DMSO
T2 construct: his-tag; made in house; host or cells: baculovirus-infected Sf9 cells
T2 sequence (Q9VYZ1 1-406): T1 sequence (Q9VYZ1 1-406)
T2 sequence (Q9VNB5 1-486 partner): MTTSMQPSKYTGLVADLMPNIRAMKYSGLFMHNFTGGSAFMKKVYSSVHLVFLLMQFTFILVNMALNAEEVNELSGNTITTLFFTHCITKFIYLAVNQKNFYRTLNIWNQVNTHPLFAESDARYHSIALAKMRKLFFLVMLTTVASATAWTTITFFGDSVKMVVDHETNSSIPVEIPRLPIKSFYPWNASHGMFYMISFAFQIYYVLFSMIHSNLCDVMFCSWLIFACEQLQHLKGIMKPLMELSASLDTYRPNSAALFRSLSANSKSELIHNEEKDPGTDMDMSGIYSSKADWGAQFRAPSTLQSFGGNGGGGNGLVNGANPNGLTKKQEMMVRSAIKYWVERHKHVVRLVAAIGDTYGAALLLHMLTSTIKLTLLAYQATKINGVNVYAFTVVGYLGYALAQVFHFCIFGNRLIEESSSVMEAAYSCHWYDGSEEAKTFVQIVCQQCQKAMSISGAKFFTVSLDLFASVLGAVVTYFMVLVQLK
Experimental: as §1

[3] = GFET sensor, empty liposomes (control)
Experimental: The OR liposomes were functionalised onto the graphene surface via a non-covalent route using PBASE as the molecular linker as shown in FIG. 13. The OR liposomes were diluted at 1:10 ratio with 1×PBS (pH7.4). The cleaned GFETs were immersed in 1 mM PBASE solution in methanol for 1 hour. The devices were washed three times in methanol and subsequently washed three times in 1×PBS to remove the excess PBASE and residual methanol in the channel respectively. The OR liposomes were diluted 1:10 with 1×PBS (pH 7.4) and 100 μL of the OR dilution was placed in the graphene channel and incubated at room temperature for one hour in a closed petri dish. After OR liposome functionalization, the devices were washed in 1×PBS for 10 s before measurements.
The OR liposome immobilised GFET device with a PDMS well mounted on it was placed onto the probe station and the source and drain connections were made by micromanipulators. 100 μl of PBS containing 1% dimethyl sulfoxide (DMSO) was added to the well and the Ag/AgCl standard electrode was placed into the buffer. The stock solution of ligands at 100 mM concentrations were prepared by dissolving them in DMSO as they are not stable in aqueous buffer. The stock solution was stored at 4° C. The ligand solution for sensing was prepared by diluting the stock solution in 1×PBS buffer containing 1% DMSO to set concentrations from 10 fM to 100 pM. […]

Row | SMILES | change in oscillation frequency on ligand exposure [1] | change in oscillation frequency on ligand exposure [2] | sensor response to target ligand [3]
1 | CCCCCC(=O)OC [methyl hexanoate] | negligible response; also recorded: not observed | negligible response; also recorded: not observed | lack of response
2 | COC(=O)c1ccccc1O [methyl salicylate] | increase in the frequency | greater response; also recorded: increase in the frequency | lack of response
